The text below walks through data of publication PMC5971065 (ACS infectious diseases, 2017).

Data set [1] concerns A549, HEK-293, and J774A.1 cells. The data set can be described thus: Mammalian cytotoxicity. Particulars: positive control treatment.
Data set [2] deals with Mtb H37Rv. The data set is classed as cell-based, Mycobacterium tuberculosis.

Turning to Triton X-100, the cytotoxicity entry in data set [1] is recorded as “most of the cells killed”.

With kanamycin A, the “H37Rv MICKAN” value in data set [2] worked out at 1.25 µg/mL.
